# Results reported in patent US6468476B1, “Methods for using-co-regulated genesets to enhance detection and classification of gene expression patterns” (Rosetta Inpharmatics, Inc., priority 1998, dated 2002).
# System: genesets (calcineurin-mediated, Gcn4-mediated)
# Assay: Response profiles projected onto genesets defined by cluster analysis of 34 experiments
# Assay type: cell-based, Saccharomyces cerevisiae
# Settings: HU at 3.1 mM
# Description: Yeast (Saccharomyces cerevisiae, Strain YPH499, see, Sikorski and Hieter, 1989, A system of shuttle vectors and yeast host strains designated for efficient manipulation of DNA in Saccharomyces cerevisiae, Genetics 122:19-27) cells were grown in YAPD at 30° C. to an OD600 of 1.0 (±0.2), and total RNA prepared by breaking cells in phenol/chloroform and 0.1% SDS by standard procedures (Ausubel et al., 1995, Current Protocols in Molecular Biology, Greene Publishing and Wiley-Interscience, New York, Ch. 13). Poly(A)^+ RNA was selected by affinity chromatography on oligo-dT cellulose (New England Biolabs) essentially as described in Sambrook et al. (Molecular Cloning—A Laboratory Manual (2nd Ed.), Vol. 1, Cold Spring Harbor Laboratory, Cold Spring Harbor, N.Y., 1989). First strand cDNA synthesis was carried out with 2 μg poly(A)^+ RNA and SuperScript™ II reverse transcriptase (Gibco-BRL) according to the manufacturer's instructions with the following modifications. […]
# Fluorescently-labeled cDNAs (2-6 μg) are resuspended in 4×SSC plus 1 μg/μl tRNA as carrier and filtered using […] filters (Millipore, Bedford, Mass.). […] Microarrays are scanned with a fluorescence laser-scanning device as previously described (Schena et al., 1995, Science 270:467-470; Schena et al., 1995, Proc. Natl. Acad. Sci. USA 93:[…]) and the results (including the positions of perturbations) are recorded. […]
smiles,measurement,value
"NC(=O)NO [HU, Hydroxyurea]",Projected profile,very weak
